Laboratory results: patent publication US20150157739A1, “Imidazo[2,1]thiazol-3-one derivatives” (Hoffmann-La Roche Inc., priority 2012, published 2015)

What was measured:
[1] = molecular target: T1, aggregated recombinant human-microtubule associated protein Tau (Homo sapiens, UniProt P10636); assay: Thiazin-red R displacement fluorescence assay on aggregated Tau; format: binding; details: displacement of Thiazin-red R from aggregated Tau; compound 0.3 nM to 10000 nM; 30 min room temperature; Ex 531 nm/Em 595 nm
T1 construct: Recombinant human-microtubule associated protein Tau purified from E. coli is aggregated at a concentration of 5 μM with Arachidonic Acid (100 μM) in Tris 10 mM pH8, 24 h at 37° C
Protocol: (§1) Assay for Determination of […] for Tau and A-Beta
(§2) Recombinant human-microtubule associated protein Tau purified from E. coli is aggregated at a concentration of 5 μM with Arachidonic Acid (100 μM) in Tris 10 mM pH8, 24 h at 37° C. Synthetic Aβ40 is aggregated at a concentration of 50 μM with Arachidonic Acid (100 μM) in Tris 10 mM pH8, for three days at 37° C., under shaking at 150 rpm.
(§3) A saturation analysis of Thiazin-red R to the aggregated proteins is done to determine the affinity (Kd) of the Thiazin-red R to the aggregated protein.
(§4) Thiazin-red R will be added at the concentration corresponding to the Kd to the respective aggregated protein binding site, to induce a fluorescent signal that can be inhibited by the addition of a displacer compound.
(§5) In parallel, auto fluorescence of the compound is measured together with the aggregated proteins, but without Thiazin-red R. As negative control, ligand and aggregated protein is used and as positive control, Thiazin-red R, reference compound with known activity and aggregated protein is used.
(§6) Assay is performed in Perkin Elmer OptiPlate 384, black, 45 ul assay volume, assay buffer is DPBS no CaCl2 no MgCl2 (GIBCO N. 14020). Tested compounds are diluted in DMSO and 2 μl is added to the assay ([…]). Assay is started by the addition of the aggregated protein (competitive condition). Plates are shortly shacked (1 min with Sterico variomag teleshake) and incubated for 30 min at room temperature. Measurement are done with En:Vision (Perkin Elmer), at Excitation 531 nm/Emission 595 nm.

[2] = molecular target: T2, aggregated synthetic Aβ40 (Homo sapiens, UniProt P05067); assay: Thiazin-red R displacement fluorescence assay on aggregated A-beta; format: binding; details: displacement of Thiazin-red R from aggregated Aβ40; compound 0.3 nM to 10000 nM; 30 min room temperature; Ex 531 nm/Em 595 nm
T2 construct: Synthetic Aβ40 is aggregated at a concentration of 50 μM
Protocol: as §1, §2, §3, §4, §5, §6

T2 sequence (P05067 672-711 limits assumed): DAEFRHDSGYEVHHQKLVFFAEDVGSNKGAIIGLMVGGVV
T1 sequence (P10636 whole entry): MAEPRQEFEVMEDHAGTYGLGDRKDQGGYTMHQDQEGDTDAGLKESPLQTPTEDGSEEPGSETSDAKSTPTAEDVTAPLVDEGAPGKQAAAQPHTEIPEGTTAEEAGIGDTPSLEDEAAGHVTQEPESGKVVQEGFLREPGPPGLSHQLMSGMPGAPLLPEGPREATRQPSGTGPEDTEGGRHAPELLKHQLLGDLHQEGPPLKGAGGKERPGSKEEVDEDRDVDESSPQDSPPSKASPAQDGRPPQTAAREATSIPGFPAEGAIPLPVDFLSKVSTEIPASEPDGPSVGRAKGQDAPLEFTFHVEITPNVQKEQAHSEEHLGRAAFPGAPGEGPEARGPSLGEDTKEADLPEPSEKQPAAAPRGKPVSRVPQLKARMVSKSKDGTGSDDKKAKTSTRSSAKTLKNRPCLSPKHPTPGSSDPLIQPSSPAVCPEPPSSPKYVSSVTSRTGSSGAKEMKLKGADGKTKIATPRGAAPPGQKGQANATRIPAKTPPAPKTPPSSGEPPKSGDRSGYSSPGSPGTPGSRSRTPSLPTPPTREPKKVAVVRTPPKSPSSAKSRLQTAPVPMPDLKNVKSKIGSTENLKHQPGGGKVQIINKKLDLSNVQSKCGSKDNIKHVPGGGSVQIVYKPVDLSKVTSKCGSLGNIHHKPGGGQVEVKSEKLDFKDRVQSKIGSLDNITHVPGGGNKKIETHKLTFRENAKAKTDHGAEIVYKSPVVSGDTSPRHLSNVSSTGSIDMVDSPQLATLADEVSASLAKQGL

SMILES | IC50 [1] [nM] | IC50 [2] [nM]
COc1cc(/C=c2\sc3nc(-c4cccc(S(=O)(=O)F)c4)cn3c2=O)cc(Cl)c1O [Example 152, 3-{2-[1-(3-Chloro-4-hydroxy-5-methoxy-phenyl)-meth-(Z)-ylidene]-3-oxo-2,3-dihydro-imidazo[2,1-b]thiazol-6-yl}-benzenesulfonyl fluoride] | 7 | 19
COc1cc(/C=c2\sc3nc(-c4ccc(Cl)cc4)cn3c2=O)cc(Cl)c1O [Example 6, 6-(4-Chloro-phenyl)-2-[1-(3-chloro-4-hydroxy-5-methoxy-phenyl)-meth-(Z)-ylidene]-imidazo[2,1-b]thiazol-3-one] | 2 | 32
COc1cc(/C=c2\sc3nc(-c4cccc(C#N)c4)cn3c2=O)cc(Cl)c1O [Example 44, 3-{2-[1-(3-Chloro-4-hydroxy-5-methoxy-phenyl)-meth-(Z)-ylidene]-3-oxo-2,3-dihydro-imidazo[2,1-b]thiazol-6-yl}-benzonitrile] | 6 | 24000
COc1cc(/C=c2\sc3nc(-c4ccc(Cl)cc4)cn3c2=O)cc(O)c1O [Example 8, 6-(4-Chloro-phenyl)-2-[1-(3,4-dihydroxy-5-methoxy-phenyl)-meth-(Z)-ylidene]-imidazo[2,1-b]thiazol-3-one] | 5 | 18
CCCOc1cc(/C=c2\sc3nc(-c4cccc(OC(F)(F)F)c4)cn3c2=O)cc(OC)c1O [Example 33, 2-[1-(4-Hydroxy-3-methoxy-5-propoxy-phenyl)-meth-(Z)-ylidene]-6-(3-trifluoromethoxy-phenyl)-imidazo[2,1-b]thiazol-3-one] | 25 | 256
COc1cccc(-c2cn3c(=O)/c(=C/c4cc(F)c(O)c(OC)c4)sc3n2)n1 [Example 48, 2-[1-(3-Fluoro-4-hydroxy-5-methoxy-phenyl)-meth-(Z)-ylidene]-6-(6-methoxy-pyridin-2-yl)-imidazo[2,1-b]thiazol-3-one] | 20 | 1790
COc1cc(/C=c2\sc3nc(-c4ccc(Cl)cc4)cn3c2=O)ccc1O [Example 3, 6-(4-Chloro-phenyl)-2-[1-(4-hydroxy-3-methoxy-phenyl)-meth-(Z)-ylidene]-imidazo[2,1-b]thiazol-3-one] | 49 | 215
COc1cc(/C=c2\sc3nc(-c4ccccc4C)cn3c2=O)cc(F)c1O [Example 9, 2-[1-(3-Fluoro-4-hydroxy-5-methoxy-phenyl)-meth-(Z)-ylidene]-6-o-tolyl-imidazo[2,1-b]thiazol-3-one] | 105 | 706
COc1cc(/C=c2\sc3nc(-c4cccc(C(N)=O)c4)cn3c2=O)cc(F)c1O [Example 121, 3-{2-[1-(3-Fluoro-4-hydroxy-5-methoxy-phenyl)-meth-(Z)-ylidene]-3-oxo-2,3-dihydro-imidazo[2,1-b]thiazol-6-yl}-benzamide] | 19 | 591
COc1cc(/C=c2\sc3nc(-c4ccc(Cl)cc4)cn3c2=O)cc(OCCF)c1O [Example 27, 6-(4-Chloro-phenyl)-2-[1-(3-(2-fluoro-ethoxy)-4-hydroxy-5-methoxy-phenyl)-meth-(Z)-ylidene]-imidazo[2,1-b]thiazol-3-one] | 1 | 7
COc1cc(/C=c2\sc3nc(-c4ccc(OC(F)F)cc4)cn3c2=O)cc(Cl)c1O [Example 88, 2-[1-(3-Chloro-4-hydroxy-5-methoxy-phenyl)-meth-(Z)-ylidene]-6-(4-(difluoromethoxy)phenyl)-imidazo[2,1-b]thiazol-3-one] | 0.6 | 14
COc1cc(/C=c2\sc3nc(-c4cccc(OCCF)c4)cn3c2=O)cc(Cl)c1O [Example 74, 2-[1-(3-Chloro-4-hydroxy-5-methoxy-phenyl)-meth-(Z)-ylidene]-6-(3-(2-fluoroethoxyl)phenyl)-imidazo[2,1-b]thiazol-3-one] | 5 | 55
COc1cc(/C=c2\sc3nc(-c4cccc(N5CCOCC5)c4)cn3c2=O)cc(Cl)c1O [Example 89, 2-[1-(3-Chloro-4-hydroxy-5-methoxy-phenyl)-meth-(Z)-ylidene]-6-(3-morpholinophenyl)-imidazo[2,1-b]thiazol-3-one] | 24 | 356
COc1cc(/C=c2\sc3nc(-c4ccnc(C)c4)cn3c2=O)cc(Br)c1O [Example 77, 2-[1-(3-Bromo-4-hydroxy-5-methoxy-phenyl)-meth-(Z)-ylidene]-6-(2-methylpyridin-4-yl)-imidazo[2,1-b]thiazol-3-one] | 1 | 76
CNC(=O)c1cccc(-c2cn3c(=O)/c(=C/c4cc(Cl)c(O)c(OC)c4)sc3n2)c1 [Example 108, 3-{2-[1-(3-Chloro-4-hydroxy-5-methoxy-phenyl)-meth-(Z)-ylidene]-3-oxo-2,3-dihydro-imidazo[2,1-b]thiazol-6-yl}-N-methyl-benzamide] | 4 | 395
Cc1cc(-c2cn3c(=O)/c(=C/c4cc(Cl)c(O)c(OCCCF)c4)sc3n2)cc(C)n1 [Example 153, 2-[1-[3-Chloro-5-(3-fluoro-propoxy)-4-hydroxy-phenyl]-meth-(Z)-ylidene]-6-(2,6-dimethyl-pyridin-4-yl)-imidazo[2,1-b]thiazol-3-one] | 46 | 605
CCCNC(=O)c1ccc(-c2cn3c(=O)/c(=C/c4cc(Cl)c(O)c(OC)c4)sc3n2)cc1 [Example 115, 4-{2-[1-(3-Chloro-4-hydroxy-5-methoxy-phenyl)-meth-(Z)-ylidene]-3-oxo-2,3-dihydro-imidazo[2,1-b]thiazol-6-yl}-N-propyl-benzamide] | 2 | 356
CCOc1cc(/C=c2\sc3nc(-c4ccc(Cl)cc4)cn3c2=O)cc(OC)c1O [Example 26, 6-(4-Chloro-phenyl)-2-[1-(3-ethoxy-4-hydroxy-5-methoxy-phenyl)-meth-(Z)-ylidene]-imidazo[2,1-b]thiazol-3-one] | 2 | 4
CCCNC(=O)c1cccc(-c2cn3c(=O)/c(=C/c4cc(Cl)c(O)c(OC)c4)sc3n2)c1 [Example 107, 3-{2-[1-(3-Chloro-4-hydroxy-5-methoxy-phenyl)-meth-(Z)-ylidene]-3-oxo-2,3-dihydro-imidazo[2,1-b]thiazol-6-yl}-N-propyl-benzamide] | 3 | 2630
COc1cc(/C=c2\sc3nc(-c4ccncc4)cn3c2=O)cc(OC)c1O [Example 1, 2-[1-(4-Hydroxy-3,5-dimethoxy-phenyl)-meth-(Z)-ylidene]-6-pyridin-4-yl-imidazo[2,1-b]thiazol-3-one] | 5 | 93
COc1cc(/C=c2\sc3nc(-c4ccc5c(c4)OCCO5)cn3c2=O)cc(Cl)c1O [Example 100, 2-[1-(3-Chloro-4-hydroxy-5-methoxy-phenyl)-meth-(Z)-ylidene]-6-(2,3-dihydro-benzo[1,4]dioxin-6-yl)-imidazo[2,1-b]thiazol-3-one] | 9 | 1060
COc1cc(/C=c2\sc3nc(-c4cccc(C)c4)cn3c2=O)cc(Cl)c1O [Example 52, 2-[1-(3-Chloro-4-hydroxy-5-methoxy-phenyl)-meth-(Z)-ylidene]-6-m-tolyl-imidazo[2,1-b]thiazol-3-one] | 7 | 1020
